# Reference: patent US7935718B2, “Treatment of dyskinesia” (Motac Neuroscience Limited, priority 2000, dated 2011)
# Columns and labels:
# [1] = system: reserpine-treated rat model of Parkinson's disease; test: Locomotion (hyperkinesia) after chloro-APB in reserpine-treated parkinsonian rats; type: in vivo; details: reserpine (3 mg/kg) rats, chloro-APB (0.2 mg/kg) + imetit (1 mg/kg) versus vehicle, one hour period
# Method: The effect of the H3-histamine receptor agonist imetit on dyskinesia was assessed in a reserpine-treated rat model of Parkinson's disease following treatment of the rats with the anti-parkinsonian agent chloro-APB (0.2 mg/kg).
# Male Sprague-Dawley rats were split into two groups A and B. Rats in both groups were rendered parkinsonian by subcutaneous administration of reserpine (3 mg/kg) for 18 hours.
# After the 18 hours Group A were treated with chloro-APB (0.2 mg/kg) and imetit (1 mg/kg) whereas B were treated with chloro-APB (0.2 mg/kg) and vehicle for imetit only.
# The locomotion of the rats in Groups A and B was measured over a one hour period using Benwick locomotor monitors. These locomotion monitors consist of a visually-shielded open-field arena, the perimeter of which is surrounded by a series of infra-red beams arranged at 5 cm intervals. PC-based software (Amlogger) assesses the number of beams broken. The number of beams broken as part of a locomotor movement (mobile counts) or the number of beam breaks while the animal is not locomoting (static counts) were measured. In addition, the system assesses the time for which animals are mobile or static.
# [2] = system: MPTP-lesioned marmoset model of Parkinson's disease; test: L-DOPA-induced mobility and dyskinesia in MPTP-lesioned marmosets; type: in vivo, Marmosets (Callithrix jacchus); details: L-DOPA (8 mg/kg) + imetit 1, 3, 10 mg/kg oral; assessed every 30 minutes for 4 hours
# Method: The effect of the H3-histamine receptor agonist imetit on L-DOPA-induced dyskinesia was assessed in the MPTP-lesioned marmoset model of Parkinson's disease.
# Marmosets (Callithrix jacchus) (bred in a closed colony at the University of Manchester) are rendered parkinsonian by subcutaneous injection of 2 mg kg^−1 MPTP for 5 consecutive days. The marmosets are allowed to recover for a minimum of 10 weeks until their parkinsonism becomes stable. The degree of activity and disability before and after MPTP treatment is assessed using a combination of scales as described in section 2.1.2. Animals are then treated with L-DOPA for at least 3 weeks to prime them to elicit dyskinesia. […]
# The behavioural tests were assessed every 30 minutes for 4 hours, by post hoc analysis of video-recordings by an observer blinded to the treatment. […]
structure (smiles),measurement,setting,value
N=C(N)SCCc1cnc[nH]1 [imetit],total mobile counts,[1],less than those treated with vehicle
same,L-DOPA-induced mobility (mobility score),[2],no effect on L-DOPA-induced mobility
same,severity of L-DOPA-induced dyskinesia (dyskinesia score),[2],dose-dependent reduction
